What was measured:
[1] = test system: IgE-stimulated footpad edema; assay: Mouse IgE-stimulated footpad edema reaction; assay type: in vivo; conditions: C57BL/6 male mice, oral 0.1 to 500 mg/kg, compared with positive control group
Method: 4. Suppressing Effect on Mouse IgE-stimulated Footpad Edema Reaction
Suppression on footpad edema caused by IgE antibody as an allergic stimulant was studied by the following method. Groups of C57BL/6 male mice (9- to 11-week old) each consisting of five mice were used for the test. Anti-DNP-BSA IgE serum was subcutaneously administered in a volume of 20 μl to right hind leg footpad of each mouse one day before the test. A test compound was suspended or dissolved in purified water containing 0.5% methylcellulose and orally administered to the test animals at 0.1 to 500 mg/0.2 ml/kg. To the control group, purified water containing 0.5% methylcellulose was administered in a similar manner, which was not added with the test compound. Two hours after the administration of the test compound, 0.2 ml of a solution of DNP-BSA dissolved in physiological saline (Otsuka Pharmaceutical) at 2.5 μg/ml was intravenously administered. The thickness of right hind leg footpad was measured by using a digital thickness gauge (MITSUTOYO) 10, 15, 20, and 30 minutes after the administration of DNP-BSA. A difference of the thickness of footpad measured above and the thickness before the administration of the test compound measured beforehand was regarded as a thickness of edema.
For the thickness of the edema at 10, 15, 20 and 30 minutes after the DNP-BSA administration, a graph was prepared indicating time in abscissa and the edema thickness in ordinate, and edema thickness AUC […] was obtained by calculation according to the following equation. Edema thickness AUC (mm·minute)=1/2×10×A+5×(A+B)/2+5×(B+C)/2+10×(C+D)/2 • A: Edema thickness 10 minutes after DNP-BSA administration • B: Edema thickness 15 minutes after DNP-BSA administration • C: Edema thickness 20 minutes after DNP-BSA administration • D: Edema thickness 30 minutes after DNP-BSA administration
A suppressing ratio on edema of a test compound was obtained by calculation in accordance with the following equation. Edema suppression ratio (%)=[1−B/A]×100 • A: Edema thickness AUC of positive control • B: Edema thickness AUC of test compound administered group (2) Measurement Results

[2] = test system: zymosan-stimulated footpad edema; assay: Mouse zymosan-stimulated footpad edema reaction; assay type: in vivo; conditions: ICR female mice, oral 0.1 to 500 mg/kg, compared with positive control group
Summary of the method: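 Female ICR mice (6–7 weeks, n=8) dosed orally at 0.1 to 500 mg/kg in 0.5% methylcellulose; 1 h later zymosan (1 mg/ml, 0.02 ml) injected s.c. into right hind footpad. Edema volume at 1 and 2 h gave AUC to 2 h; suppression (%) calculated against positive control AUC.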

[3] = test system: PGE2 production from IL-1β-stimulated MG-63 cells; assay: Suppressing action on PGE2 production from IL-1β-stimulated MG-63 cells; assay type: cell-based; conditions: Homo sapiens, IL-1β 1 ng/ml, 18 hours, read-out: PGE2 production suppression ratio
Summary of the method: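 Human osteosarcoma MG-63 cells (2×10^4/well) switched to 0.5% FBS medium, treated with compound, then stimulated with IL-1β at 1 ng/ml final for 18 h. Supernatant PGE2 measured by EIA; suppression ratio calculated against stimulated and unstimulated wells.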

Compound | suppression of footpad edema caused by IgE stimulation [1] | suppression of footpad edema caused by zymosan [2] | inhibition at 0.4 µM [3]
O=C(O)CCc1ccc(OCc2cccc(F)c2)c(-c2ccc3ccccc3c2)c1 [Compound 033, 3-[4-(3-fluorophenylmethyloxy)-3-(naphthalen-2-yl)phenyl]propionic acid] | suppressed the footpad edema | suppressed footpad edema | ≥ 50%
O=C(O)CCc1ccc(OCCc2ccccc2)c(-c2ccc3ccccc3c2)c1 [Compound 051, 3-[3-(naphthalen-2-yl)-4-(2-phenylethyloxy)phenyl]propionic acid] | suppressed the footpad edema |  | ≥ 50%
O=C(O)CCc1ccc(OCCc2cccc(F)c2)c(-c2ccc3ccccc3c2)c1 [Compound 055, 3-{4-[2-(3-fluorophenyl)ethyloxy]-3-(naphthalen-2-yl)phenyl}propionic acid] | suppressed the footpad edema | suppressed footpad edema | ≥ 50%
O=C(O)CCc1ccc(OCCc2ccc(F)cc2)c(-c2ccc3ccccc3c2)c1 [Compound 057, 3-{4-[2-(4-fluorophenyl)ethyloxy]-3-(naphthalen-2-yl)phenyl}propionic acid] | suppressed the footpad edema | suppressed footpad edema | ≥ 50%
O=C(O)CCc1ccc(OCC2CCCCC2)c(-c2cccc3[nH]ccc23)c1 [Compound 116, 3-[4-cyclohexylmethyloxy-3-(1H-indol-4-yl)phenyl]propionic acid] | suppressed the footpad edema | suppressed footpad edema | ≥ 50%
Cn1ccc2c(-c3cc(CCC(=O)O)ccc3OC3CCCCC3)cccc21 [Compound 126, 3-[4-cyclohexyloxy-3-(1-methyl-1H-indol-4-yl)phenyl]propionic acid] | suppressed the footpad edema | suppressed footpad edema | ≥ 50%
O=C(O)CCc1ccc(OCc2ccccc2-c2ccccc2)c(-c2ccc3[nH]ccc3c2)c1 [Compound 140, 3-{4-[(biphenyl-2-yl)methyloxy]-3-(1H-indol-5-yl)phenyl}propionic acid] | suppressed the footpad edema | suppressed footpad edema | ≥ 50%
O=C(O)CCc1ccc(OCc2ccc(F)cc2F)c(-c2ccc3[nH]ccc3c2)c1 [Compound 156, 3-[4-(2,4-difluorophenylmethyloxy)-3-(1H-indol-5-yl)phenyl]propionic acid] | suppressed the footpad edema |  | ≥ 50%
O=C(O)CCc1ccc(OCc2ccc(F)c(F)c2)c(-c2ccc3[nH]ccc3c2)c1 [Compound 158, 3-[4-(3,4-difluorophenylmethyloxy)-3-(1H-indol-5-yl)phenyl]propionic acid] | suppressed the footpad edema |  | ≥ 50%
O=C(O)CCc1ccc(OCc2ccc(Br)cc2F)c(-c2ccc3[nH]ccc3c2)c1 [Compound 168] | suppressed the footpad edema | suppressed footpad edema | 
CCC(CC)COc1ccc(CCC(=O)O)cc1-c1ccc2[nH]ccc2c1 [Compound 183, 3-[4-(2-ethylbutyloxy)-3-(1H-indol-5-yl)phenyl]propionic acid] | suppressed the footpad edema | suppressed footpad edema | ≥ 50%
O=C(O)CCc1ccc(OCc2ccc3ccccc3c2)c(-c2ccc3[nH]ccc3c2)c1 [Compound 192, 3-{3-(1H-indol-5-yl)-4-[(Naphthalen-2-yl)methyloxy]phenyl}propionic acid] | suppressed the footpad edema |  | ≥ 50%
Cc1ccccc1CCOc1ccc(CCC(=O)O)cc1-c1ccc2[nH]ccc2c1 [Compound 200, 3-{3-(1H-indol-5-yl)-4-[2-(2-methylphenyl)ethyloxy]phenyl}propionic acid] | suppressed the footpad edema | suppressed footpad edema | ≥ 50%
Cc1cccc(CCOc2ccc(CCC(=O)O)cc2-c2ccc3[nH]ccc3c2)c1 [Compound 202, 3-{3-(1H-indol-5-yl)-4-[2-(3-methylphenyl)ethyloxy]phenyl}propionic acid] | suppressed the footpad edema | suppressed footpad edema | ≥ 50%
COc1ccccc1CCOc1ccc(CCC(=O)O)cc1-c1ccc2[nH]ccc2c1 [Compound 205, 3-{3-(1H-indol-5-yl)-4-[2-(2-methoxyphenyl)ethyloxy]phenyl}propionic acid] | suppressed the footpad edema | suppressed footpad edema | ≥ 50%
O=C(O)CCc1ccc(OCCc2ccccc2Cl)c(-c2ccc3[nH]ccc3c2)c1 [Compound 209, 3-{4-[2-(2-chlorophenyl)ethyloxy]-3-(1H-indol-5-yl)phenyl}propionic acid] | suppressed the footpad edema | suppressed footpad edema | ≥ 50%
O=C(O)CCc1ccc(OCCc2ccc(Cl)cc2)c(-c2ccc3[nH]ccc3c2)c1 [Compound 213, 3-{4-[2-(4-chlorophenyl)ethyloxy]-3-(1H-indol-5-yl)phenyl}propionic acid] | suppressed the footpad edema |  | ≥ 50%
O=C(O)CCc1ccc(OCCOc2ccc(Cl)cc2)c(-c2ccc3[nH]ccc3c2)c1 [Compound 226, 3-{4-[2-(4-chlorophenyloxy)ethyloxy]-3-(1H-indol-5-yl)phenyl}propionic acid] | suppressed the footpad edema | suppressed footpad edema | ≥ 50%
O=C(O)CCc1ccc(OCCSc2ccccc2)c(-c2ccc3[nH]ccc3c2)c1 [Compound 228, 3-{3-(1H-indol-5-yl)-4-[2-(phenylthio)ethyloxy]phenyl}propionic acid] | suppressed the footpad edema | suppressed footpad edema | ≥ 50%
Nc1cc(CCC(=O)O)cc(-c2ccc3[nH]ccc3c2)c1OCC1CCCC1 [Compound 266, 3-[3-amino-4-cyclopentylmethyloxy-5-(1H-indol-5-yl)phenyl]propionic acid] | suppressed the footpad edema |  | ≥ 50%
O=C(O)CCc1ccc(OCc2ccccc2)c(-c2ccc3[nH]ccc3c2)c1 [Compound 325, 3-[4-benzyloxy-3-(1H-indol-5-yl)phenyl]propionic acid] | suppressed the footpad edema |  | ≥ 50%

— patent US6867320B2, “Substituted phenylalkanoic acid derivatives and use thereof” (Asahi Kasei Pharma Corporation, priority 2002, dated 2005)
